Values of other authors, collected in patent US20040208906A1, “Pharmaceutical composition for topical administration” (Daiichi Suntory Pharma Co., Ltd., priority 1999, published 2004).

Experiments:
[1] = tested on: Gram-positive bacteria (MSSA, Streptococcus pyogenes, Streptococcus pneumoniae, PRSP, oral streptococci, enterococci); settings: Gram-positive bacteria incl. MSSA
[2] = tested on: pathogens of periodontitis, including Porphyromonas gingivalis

Question: Which antibacterial activity [1] does the source give for C[C@@H](O)[C@H]1C(=O)N2C(C(=O)[O-])=C([C@H]3CCCO3)S[C@H]12.[Na+] [Compound 1, sodium (+)-(5R,6S)-6-[(R)-1-hydroxyethyl]-7-oxo-3-[(R)-2-tetrahydrofuryl]-4-thia-1-azabicyclo[3.2.0]hept-2-ene-2-carboxylate] here?
Answer: potent antibacterial activity

Question: And the antibacterial activity [2]?
Answer: potent antibacterial activity
